“And” between values parts separate entries of the source, which are not always exact repeats. Equal values may be shown once.
Tests used:
ALMS patients [1] = assay: Non-Alcoholic Fatty Liver Disease (NAFLD) Fibrosis Score; assay type: in vivo, human; settings: for Change from Baseline NAFLD Score with an FPG > 5.6 mmol/L, Mean (SD) / Change from Baseline NAFLD Score with an FPG > 5.6 mmol/L, Median / NAFLD Fibrosis Score in Subjects with an FPG > 5.6 mmol/L: 800 mg daily oral; for NAFLD Fibrosis Score in Subjects with an FPG > 5.6 mmol/L: individual subjects
Method: (§1) The study was a Phase 2, single-centre, single-arm, open-label study of sodium 2-(3-pentylphenyl)acetate administered at a total daily oral dose of 800 mg for up to 72 weeks in subjects with ALMS was undertaken. The initial duration of the study was 24 weeks, and subjects were offered to enrol into an extension phase of […]. The schedule of study procedures for the enrolment, intervention, and assessments for participants is outlined in FIG. 1. Sodium 2-(3-pentylphenyl)acetate was formulated in soft gelatine capsules containing 200 mg of Sodium 2-(3-pentylphenyl)acetate (amorphous powder) per capsule, polyethylene glycol 400, National Formulary (NF), hydrochloric acid (for pH adjustment), and water. The effect of sodium 2-(3-pentylphenyl)acetate on liver histology in ALMS patients was also assessed by measuring the Non-Alcoholic Fatty Liver Disease (NAFLD) Fibrosis Score. Increased NAFLD fibrosis score may be associated with hepatic dysfunction.

ALMS patients [2] = assay: Albumin-to-creatinine ratio (ACR); assay type: in vivo, human; settings: for Change from Baseline ACR, Mean (SD) / Change from Baseline ACR, Median / ACR: 800 mg daily oral; for ACR: individual subjects, listed as sodium 2-(3-pentylphenypacetate)
Method: as §1, with “water. Albuminuria, the increase in excretion of urinary albumin, is marker of kidney damage and is assessed by measuring the ACR.” for “water.”, “kidney histology/damage” for “liver histology”, “was” for “was also”, “ACR.” for “Non-Alcoholic Fatty Liver Disease (NAFLD) Fibrosis Score. Increased NAFLD fibrosis score may be associated with hepatic dysfunction.”

## CCCCCc1cccc(CC(=O)[O-])c1.[Na+] [sodium 2-(3-pentylphenyl)acetate]
ALMS patients [1]; EP Week 36 (Week 60), N=9
  Change from Baseline NAFLD Score with an FPG > 5.6 mmol/L, Mean (SD): −0.16 (0.684)
  Change from Baseline NAFLD Score with an FPG > 5.6 mmol/L, Median: −0.14
ALMS patients [1]; Subject 826-001-001, 204-day break in treatment
  increase in NAFLD fibrosis score from baseline: 0.7
ALMS patients [1]; Week 12, N=11
  Change from Baseline NAFLD Score with an FPG > 5.6 mmol/L, Mean (SD): −0.35 (0.582)
  Change from Baseline NAFLD Score with an FPG > 5.6 mmol/L, Median: −0.34
ALMS patients [1]; Week 24, N=9
  Change from Baseline NAFLD Score with an FPG > 5.6 mmol/L, Mean (SD): 0.16 (0.446)
  Change from Baseline NAFLD Score with an FPG > 5.6 mmol/L, Median: 0.21
ALMS patients [1]; EP Week 12 (Week 36)
  NAFLD Fibrosis Score in Subjects with an FPG > 5.6 mmol/L: −1.9 and −3.1 and −3.8 (4×) and −1.6 and −1.2 and 0.2 and −3.6
ALMS patients [1]; EP Week 24 (Week 48)
  NAFLD Fibrosis Score in Subjects with an FPG > 5.6 mmol/L: −1.9 and −4.4 and −3.0 and −3.8 and −0.8 and −1.0 and −3.1 and 0.5 and −4.2
ALMS patients [1]; EP Week 36 (Week 60)
  NAFLD Fibrosis Score in Subjects with an FPG > 5.6 mmol/L: −1.5 and −3.7 and −2.9 (2×) and −4.2 and −1.1 and 0.2 and −3.4 and −3.8
ALMS patients [1]; Week 12
  NAFLD Fibrosis Score in Subjects with an FPG > 5.6 mmol/L: −2.5 and −1.8 and −3.9 (2×) and −3.1 and −1.4 and −0.8 (2×) and −3.3 and 0.6 and −4.3
ALMS patients [1]; Week 24
  NAFLD Fibrosis Score in Subjects with an FPG > 5.6 mmol/L: −1.5 and −1.9 and −2.7 (2×) and −3.8 and −0.2 and −2.9 and −1.0 and −3.7
ALMS patients [2]; EP Week 12 (Week 36), N=10
  Change from Baseline ACR, Mean (SD): 6.19 (16.707) mg/mmol
  Change from Baseline ACR, Median: 1.25 mg/mmol
ALMS patients [2]; EP Week 24 (Week 48), N=10
  Change from Baseline ACR, Mean (SD): 13.30 (28.301) mg/mmol
  Change from Baseline ACR, Median: 1.30 mg/mmol
ALMS patients [2]; EP Week 36 (Week 60), N=9
  Change from Baseline ACR, Mean (SD): 21.32 (44.461) mg/mmol
  Change from Baseline ACR, Median: 1.60 mg/mmol
ALMS patients [2]; Subject 826-001-003, 32-day break in treatment
  increase in ACR from baseline: 13.8 mg/mmol
ALMS patients [2]; Subject 826-001-007, 32-day break in treatment
  increase in ACR from baseline: 133.8 mg/mmol
ALMS patients [2]; Subject 826-001-013, 30-day break in treatment
  increase in ACR from baseline: 43.9 mg/mmol
ALMS patients [2]; Week 12, N=12
  Change from Baseline ACR, Mean (SD): 10.08 (20.848) mg/mmol
  Change from Baseline ACR, Median: 0.90 mg/mmol
ALMS patients [2]; Week 24, N=11
  Change from Baseline ACR, Mean (SD): 4.96 (14.993) mg/mmol
  Change from Baseline ACR, Median: 0.30 mg/mmol
ALMS patients [2]; EP Week 12 (Week 36)
  ACR: 7.5 mg/mmol and 18.0 mg/mmol and 7.9 mg/mmol and 2.0 mg/mmol and 2.2 mg/mmol and 95.0 mg/mmol and <2.3 mg/mmol and 8.6 mg/mmol and 56.3 mg/mmol and 0.6 mg/mmol
ALMS patients [2]; EP Week 24 (Week 48)
  ACR: 6.2 mg/mmol and 21.6 mg/mmol and 6.7 mg/mmol and 2.1 mg/mmol and 0.8 mg/mmol and 111.7 mg/mmol and 0.7 mg/mmol and 12.9 mg/mmol and 106.5 mg/mmol and <2.3 mg/mmol
ALMS patients [2]; EP Week 36 (Week 60)
  ACR: 6.1 mg/mmol and 21.9 mg/mmol and 19.2 mg/mmol and <2.3 mg/mmol (2×) and 178.3 mg/mmol and 1.9 mg/mmol and 8.6 mg/mmol and 85.4 mg/mmol
ALMS patients [2]; Week 12
  ACR: 4.3 mg/mmol and 22.5 mg/mmol and 24.3 mg/mmol and 14.5 mg/mmol and 0.4 mg/mmol and <2.3 mg/mmol (3×) and 89.2 mg/mmol and 15.1 mg/mmol and 102.9 mg/mmol and 15.6 mg/mmol
ALMS patients [2]; Week 24
  ACR: 4.2 mg/mmol and 15.5 mg/mmol and 14.5 mg/mmol and 10.7 mg/mmol and 2.2 mg/mmol and 77.0 mg/mmol and <2.3 mg/mmol and 13.2 mg/mmol and 77.4 mg/mmol and 10.2 mg/mmol and 1.4 mg/mmol

From US20220016060A1, “USE OF SODIUM 2-(3-PENTYLPHENYL)ACETATE IN THE TREATMENT OF ALSTRÖM SYNDROME” (LIMINAL BIOSCIENCES LIMITED, priority 2018, published 2022)
